Source: patent US20260347364A1, “PYRAZOLO[4,3-F]QUINAZOLINE DERIVATIVES AS MODULATORS OF G12D MUTANT KRAS USEFUL FOR THE TREATMENT OF CANCER” (JAZZ PHARMACEUTICALS IRELAND LTD., priority 2023, published 2026)

Columns and labels:
[1] = target: T1, KRAS G12D (Homo sapiens, UniProt P01116, G12D); test: HTRF nucleotide exchange assay, KRAS G12D; type: biochemical; conditions: HTRF nucleotide exchange assay (NEA), class symbols
T1 construct: aa1-188 KRAS WT, HRAS WT, NRAS WT, or KRAS containing the G12D
T1 sequence (P01116 1-188 isoform P01116-2 G12D): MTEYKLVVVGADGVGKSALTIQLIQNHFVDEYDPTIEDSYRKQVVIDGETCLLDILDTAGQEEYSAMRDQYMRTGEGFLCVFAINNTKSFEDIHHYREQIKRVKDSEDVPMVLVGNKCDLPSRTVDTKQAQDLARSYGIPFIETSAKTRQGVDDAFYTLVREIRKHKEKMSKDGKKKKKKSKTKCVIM
Procedure: (§1) HTRF Nucleotide Exchange Assay Method
(§2) The capacity of compounds to bind KRAS G12D, other KRAS mutants and wildtype RAS isoforms was quantified using a HTRF nucleotide exchange assay. Recombinant human RAS protein (2 nM; aa1-188 KRAS WT, HRAS WT, NRAS WT, or KRAS containing the G12D, G13D or Q61H amino acid substitutions, or 4 nM KRAS; aa1-188 containing the G12V, G12C, G12A or G12S amino acid substitution, an N-terminal 6× His-tag and leader sequence), and 2 nM Europium-labeled anti-6× His antibody were mixed in assay buffer (10 mM HEPES pH 7.3, 150 mM NaCl, 5 mM MgCl2, 0.05% BSA, 0.0025% NP-40 and 100 mM KF) with various concentrations of compound in a 384-well plate and a volume of 5 μL. After a 60-minute incubation at room temperature, 5 μl of 200 nM EDA-GTP-DY647P1 (diluted in assay buffer) was added to the plate. Following 30-minute incubation at room temperature, time-resolved fluorescence was measured on a PerkinElmer Envision plate reader. DMSO (0.3%) and unlabeled GDP (1 μM) or equivalent tool compound were used to generate the Max and Min assay signals, respectively. Data was analysed using a four-parameter logistic model to calculate IC50 values, with at least two independent replicates were performed for each compound. The results are presented as IC50s in Table 29 where “A” corresponds to an IC50 ≤10 nM, “B” to an IC50 >10 nM up to 100 nM, “C” is >100 nM up to 10 μM, “D” represents <49% inhibition at 10 μM and ND=not determined: […]

[2] = target: T2, KRAS WT (Homo sapiens, UniProt P01116); test: HTRF nucleotide exchange assay, KRAS WT; type: biochemical; conditions: HTRF nucleotide exchange assay (NEA), class symbols
T2 construct: aa1-188 KRAS WT
T2 sequence (P01116 1-188 isoform P01116-2): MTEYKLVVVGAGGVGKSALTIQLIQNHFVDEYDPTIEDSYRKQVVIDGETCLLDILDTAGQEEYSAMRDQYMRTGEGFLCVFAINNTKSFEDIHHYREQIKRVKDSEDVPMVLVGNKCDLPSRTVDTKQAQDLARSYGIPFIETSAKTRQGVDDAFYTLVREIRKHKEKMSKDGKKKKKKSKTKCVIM
Procedure: as §1, §2

Structure (SMILES)	IC50 [1]	IC50 [2]
CCc1c(F)ccc2cc(O)cc(-c3cc4nc(OC[C@@]56CCCN5C[C@H](F)C6)nc(N5CCCn6nc(C(=O)N(C)C)cc6C5)c4c4cn(C)nc34)c12 [Example 22, 5-[4-(8-ethyl-7-fluoro-3-hydroxy-1-naphthyl)-2-methyl-7-[[(2R,8S)-2-fluoro-1,2,3,5,6,7-hexahydropyrrolizin-8-yl]methoxy]pyrazolo[4,3-f]quinazolin-9-yl]-N,N-dimethyl-4,6,7,8-tetrahydropyrazolo[1,5-a][1,4-]diazepine-2-carboxamide]	≤ 10 nM	≤ 10 nM
CCc1c(F)ccc2cc(O)cc(-c3c(F)c4nc(OC[C@@]56CCCN5C[C@H](F)C6)nc(N5CCC(C#N)CC5)c4c4cn(C)nc34)c12 [Example 111, 1-[4-(8-ethyl-7-fluoro-3-hydroxy-1-naphthyl)-5-fluoro-2-methyl-7-[[(2R,8S)-2-fluoro-1,2,3,5,6,7-hexahydropyrrolizin-8-yl]methoxy]pyrazolo[4,3-f]quinazolin-9-yl]piperidine-4-carbonitrile]	10 to 100 nM	≤ 10 nM
CCc1c(F)ccc2cc(O)cc(-c3cc4nc(OC[C@@]56CCCN5C[C@H](F)C6)nc(N5CCC(O)C5)c4c4cn(C)nc34)c12 (mixture of isomers) [Example 117, 1-[4-(8-ethyl-7-fluoro-3-hydroxy-1-naphthyl)-2-methyl-7-[[rac-(2R,8S)-2-fluoro-1,2,3,5,6,7-hexahydropyrrolizin-8-yl]methoxy]pyrazolo[4,3-f]quinazolin-9-yl]pyrrolidin-3-ol]	≤ 10 nM	≤ 10 nM
Cc1cc(N)nc(-c2cc3nc(OC[C@@]45CCCN4C[C@H](F)C5)nc(N4CCCn5nc(C(=O)N(C)C)cc5C4)c3c3cn(C)nc23)c1C(F)(F)F [Example 77, 5-[4-[6-amino-4-methyl-3-(trifluoromethyl)-2-pyridyl]-7-[[(2R,8S)-2-fluoro-1,2,3,5,6,7-hexahydropyrrolizin-8-cyl]methoxy]-2-methyl-pyrazolo[4,3-f]quinazolin-9-yl]-N,N-dimethyl-4,6,7,8-tetrahydropyrazolo[1,5-a][1,4]diazepine-2-carboxamide]	100 to 10000 nM	100 to 10000 nM
CCc1c(F)ccc2cc(O)cc(-c3c(F)c4nc(OC[C@@]56CCCN5C[C@H](F)C6)nc(N5CCOCC(C)(O)C5)c4c4cn(C)nc34)c12 (stereo partly drawn) [Example 92, 4-[4-(8-ethyl-7-fluoro-3-hydroxy-1-naphthyl)-5-fluoro-2-methyl-7-[[(2R,8S)-2-fluoro-1,2,3,5,6,7-hexahydropyrrolizin-8-yl]methoxy]pyrazolo[4,3-f]quinazolin-9-yl]-6-methyl-1,4-oxazepan-6-ol]	≤ 10 nM	≤ 10 nM
CCc1c(F)ccc2cc(O)cc(-c3cc4nc(OC[C@@]56CCCN5C[C@H](F)C6)nc(N5CCOC(CO)C5)c4c4cn(C)nc34)c12 (stereo partly drawn) [Example 115, 5-ethyl-6-fluoro-4-[9-[2-(hydroxymethyl)morpholin-4-yl]-2-methyl-7-[[(2R,8S)-2-fluoro-1,2,3,5,6,7-hexahydropyrrolizin-8-yl]methoxy]pyrazolo[4,3-f]quinazolin-4-yl]naphthalen-2-ol]	≤ 10 nM	≤ 10 nM
CCc1c(F)ccc2cc(O)cc(-c3cc4nc(OC[C@@]56CCCN5C[C@H](F)C6)nc(N5CCCC6(CCO6)C5)c4c4cn(C)nc34)c12 (stereo partly drawn) [Example 125, 5-ethyl-6-fluoro-4-[2-methyl-9-(1-oxa-8-azaspiro[3.5]nonan-8-yl)-7-[[(2R,8S)-2-fluoro-1,2,3,5,6,7-hexahydropyrrolizin-8-yl]methoxy]pyrazolo[4,3-f]quinazolin-4-yl]naphthalen-2-ol]	10 to 100 nM	10 to 100 nM
CCc1c(F)ccc2cc(O)cc(-c3cc4nc(OC[C@@]56CCCN5C[C@H](F)C6)nc(N5CCC6CC6(O)C5)c4c4cn(C)nc34)c12 (stereo partly drawn) [Example 127, 3-[4-(8-ethyl-7-fluoro-3-hydroxy-1-naphthyl)-2-methyl-7-[[(2R,8S)-2-fluoro-1,2,3,5,6,7-hexahydropyrrolizin-8-yl]methoxy]pyrazolo[4,3-f]quinazolin-9-yl]-3-azabicyclo[4.1.0]heptan-1-ol]	10 to 100 nM	10 to 100 nM
CCc1c(F)ccc2cc(O)cc(-c3cc4nc(OC[C@@H]5C[C@@H](OC)CN5)nc(N5CCCn6nc(C(=O)N(C)C)cc6C5)c4c4cn(C)nc34)c12 [Example 51]	≤ 10 nM	10 to 100 nM
C=Cc1c(F)ccc2cc(O)cc(-c3c(C)c4nc(OC[C@@]56CCCN5C[C@H](F)C6)nc(N5CCCn6nc(C(=O)N(C)C)cc6C5)c4c4cn(C)nc34)c12 [Example 98, 5-[4-(7-fluoro-3-hydroxy-8-vinyl-1-naphthyl)-2,5-dimethyl-7-[[(2R,8S)-2-fluoro-1,2,3,5,6,7-hexahydropyrrolizin-8-yl]methoxy]pyrazolo[4,3-f]quinazolin-9-yl]-N,N-dimethyl-4,6,7,8-tetrahydropyrazolo[1,5-a][1,4]diazepine-2-carboxamide]	≤ 10 nM	≤ 10 nM

More lines, now with the values ahead:

IC50 [1]	IC50 [2]	Structure (SMILES)
≤ 10 nM	≤ 10 nM	CCc1c(F)ccc2cc(O)cc(-c3c(C)c4nc(OCC56CCCN5CCC6)nc(N5CCC[C@@](C)(O)C5)c4c4cn(C)nc34)c12 [Example 205, (3R)-1-[4-(8-ethyl-7-fluoro-3-hydroxy-1-naphthyl)-7-(1,2,3,5,6,7-hexahydropyrrolizin-8-ylmethoxy)-2,5-dimethyl-pyrazolo[4,3-f]quinazolin-9-yl]-3-methyl-piperidin-3-ol]
≤ 10 nM	≤ 10 nM	CCc1c(F)ccc2cc(O)cc(-c3c(F)c4nc(OCC5(CO)CC5)nc(N5CCOCC(C)(O)C5)c4c4cn(C)nc34)c12 (stereo not drawn) [Example 188, 4-[4-(8-ethyl-7-fluoro-3-hydroxy-1-naphthyl)-5-fluoro-7-[[1-(hydroxymethyl)cyclopropyl]methoxy]-2-methyl-pyrazolo[4,3-f]quinazolin-9-yl]-6-methyl-1,4-oxazepan-6-ol]
≤ 10 nM	≤ 10 nM	CCc1c(F)ccc2cc(O)cc(-c3c(F)c4nc(OC[C@@]56CCCN5C[C@H](F)C6)nc(N5CC6CCC5CN6)c4c4cn(C)nc34)c12 (stereo partly drawn) [Example 179, 4-[9-(2,5-diazabicyclo[2.2.2]octan-2-yl)-5-fluoro-2-methyl-7-[[(2R,8S)-2-fluoro-1,2,3,5,6,7-hexahydropyrrolizin-8-yl]methoxy]pyrazolo[4,3-f]quinazolin-4-yl]-5-ethyl-6-fluoro-naphthalen-2-ol]
≤ 10 nM	≤ 10 nM	CCc1c(F)ccc2cc(O)cc(-c3cc4nc(OC[C@@]56CCCN5C[C@H](F)C6)nc(N5CCCC6(CC(O)C6)C5)c4c4cn(C)nc34)c12 (stereo partly drawn) [Example 136, 6-[4-(8-ethyl-7-fluoro-3-hydroxy-1-naphthyl)-2-methyl-7-[[(2R,8S)-2-fluoro-1,2,3,5,6,7-hexahydropyrrolizin-8-yl]methoxy]pyrazolo[4,3-f]quinazolin-9-yl]-6-azaspiro[3.5]nonan-2-ol]
≤ 10 nM	≤ 10 nM	C#Cc1c(F)ccc2cc(O)cc(-c3c(C)c4nc(OC[C@@]56CCCN5C[C@H](F)C6)nc(N5CCC[C@@](C)(O)C5)c4c4cn(C)nc34)c12 [Example 184, (3R)-1-[4-(8-ethynyl-7-fluoro-3-hydroxy-1-naphthyl)-2,5-dimethyl-7-[[(2R,8S)-2-fluoro-1,2,3,5,6,7-hexahydropyrrolizin-8-yl]methoxy]pyrazolo[4,3-f]quinazolin-9-yl]-3-methyl-piperidin-3-ol]
≤ 10 nM	≤ 10 nM	CCc1c(F)ccc2cc(O)cc(-c3c(F)c4nc(OCC5(CN6CCC(C#N)C6)CC5)nc(N5CCOCC(C)(O)C5)c4c4cn(C)nc34)c12 (stereo not drawn) [Example 170, 1-[[1-[[4-(8-ethyl-7-fluoro-3-hydroxy-1-naphthyl)-5-fluoro-9-(6-hydroxy-6-methyl-1,4-oxazepan-4-yl)-2-methyl-pyrazolo[4,3-f]quinazolin-7-yl]oxymethyl]cyclopropyl]methyl]pyrrolidine-3-carbonitrile]
≤ 10 nM	≤ 10 nM	CCc1c(F)ccc2cc(O)cc(-c3c(F)c4nc(OC[C@@H]5C[C@@H](F)CN5)nc(N5CCOCC(C)(O)C5)c4c4cn(C)nc34)c12 (stereo partly drawn) [Example 150, 4-[4-(8-ethyl-7-fluoro-3-hydroxy-1-naphthyl)-5-fluoro-2-methyl-7-[[(2S,4R)-4-fluoropyrrolidin-2-yl]methoxy]pyrazolo[4,3-f]quinazolin-9-yl]-6-methyl-1,4-oxazepan-6-ol]
≤ 10 nM	≤ 10 nM	CCc1c(F)ccc2cc(O)cc(-c3c(C)c4nc(OCC56CCCN5CCC6)nc(N5CCOCC(C)(O)C5)c4c4cn(C)nc34)c12 (stereo not drawn) [Example 147, 4-[4-(8-ethyl-7-fluoro-3-hydroxy-1-naphthyl)-7-(1,2,3,5,6,7-hexahydropyrrolizin-8-ylmethoxy)-2,5-dimethyl-pyrazolo[4,3-f]quinazolin-9-yl]-6-methyl-1,4-oxazepan-6-ol]
